SMILES	melting point [°C]
OC1(C#Cc2ccc(Br)cn2)CN2CCC1CC2 (stereo not given)	194 to 198
CC(C)(C)c1cc(CN)n(NCC(F)(F)F)n1	80 to 83
CC(C)SC1NC(=O)C1NC(=O)COc1ccccc1 (stereo not given)	128 to 130
CCN(CC)C(=O)c1c(C(=O)OC)ccc(F)c1[Si](C)(C)C	46
CCCCCCCCCCCCCCCCCCOc1cc(N(CC(=O)O)CC(=O)O)cc(S(=O)CC(=O)O)c1 (stereo not given)	138 to 140
Nc1nc2ccccc2c2c1ncn2CCOCC#Cc1nccs1	157 to 159
N#Cc1cc(C=O)cnc1Cl	96
CCOC(=O)NC(=S)Nc1cc(NC(=O)OC)ccc1NC(=O)CN(C)C	171 to 172
O=C(O)c1cc(CO)nn1-c1ncccc1Cl	178 to 180
CC(C)(C)c1nc(C=O)c[nH]1	194 to 195
CCCCCCCCS(=O)(=O)c1ccc(C#N)c(C#N)c1	70 to 71
CCOc1nc(OCC)c([N+](=O)[O-])c(N2CCS(=O)CC2)n1	130 to 132
O=C1CC(=O)C2C3C=CC(C3)C12 (stereo not given)	183
CN1CC(C(C#N)(c2ccccc2)c2ccccc2)C1	113 to 115
O=c1c2c[nH]c3ccccc3c-2nn1-c1ncccn1	> 360
IC#CCOc1ccncc1	140 to 141
COC12CC(C)(c3nnc(-c4cncc(Br)c4)o3)CN(C)C1Cc1cn(C)c3cccc2c13 (stereo not given)	171 to 174
C=C(c1ccccc1)C(O)C(NC=O)C(=O)OC (stereo not given)	173 to 174
O=C(O)C1=Cc2cc(Cl)c(OCC(F)(F)F)cc2OC1C(F)(F)F (stereo not given)	174 to 176
COC(=O)C1N=C(c2ccccc2F)c2cc(Cl)ccc2-n2c1cnc2C (stereo not given)	203 to 205
COc1nc2ccc(Cl)cc2nc1Cl	113 to 114

SMILES	melting point [°C]
COc1cc(CO)cc2c(Br)ccc(OC(C)C)c12	120 to 121
CCOCC1CN2CCC1CC2 (stereo not given)	73 to 77
Clc1c(CN[C@H]2CC[C@@H](c3ccccc3)CC2)ccn2c(CC3CC3)nnc12	171
O=CC1=CC(c2ccccc2)(c2ccccc2)CCC1=O	126
CN(C)c1cc(C(=O)CS(C)(=O)=O)cc(N(C)C)c1	151 to 153
O=C(Cl)c1c(Oc2ccccc2)cccc1Oc1ccccc1	72 to 73
O=C1N[C@H](C(=O)NCCO[N+](=O)[O-])[C@@H](c2ccccc2)O1	122 to 124
CCN1C(=O)C(=O)N(c2cc(Cl)ccc2C)C1=S	173 to 174
COc1ccccc1-c1c(C#N)nn(-c2c(Cl)cc(C(F)(F)F)cc2Cl)c1N	193
O=C(O)CCc1cnn(-c2ccccc2)c1-c1ccccc1	159 to 160
CCc1cc(Cl)c(NN)c(Cl)c1	48 to 50
N#CNC(=NC1CCN(Cc2ccccc2)CC1)N1CCOCC1	163 to 165
CCOC(=O)c1cnc(O)c2c(C)n[nH]c12	310
CC(C)(C)N1CC(c2ccc([N+](=O)[O-])cc2)OC1=O (stereo not given)	123 to 125
COC(=O)c1ccc(NC(C)=O)c([N+](=O)[O-])c1	123 to 124
O[C@H](c1ccc(F)cc1)[C@H](Cc1ccc(C(F)(F)F)cc1)NCc1cccc2ccccc12 (racemic)	94 to 95
O=C(O)CC(CC(=O)Nc1cc(O)c(Cl)cc1F)C(F)(F)F (stereo not given)	171 to 174
CCC(C(=O)C(C)C(O)C(C)CCc1c(N)cc(C)c(O)c1C(=O)O)C1OC(CC)(C2CCC(O)(CC)C(C)O2)CC1C (stereo not given)	223 to 225
CC1Cc2c(c(S(N)(=O)=O)nn2C)C(=O)O1 (stereo not given)	142 to 144
CCC(=O)c1cc(CC)c(O)cc1O	74 to 75
O=S(=O)(N=Cc1cccnc1)c1ccccc1	123

The next lines start with the values.

melting point [°C]	SMILES
200 to 202	CCOC(=O)c1cn(C2CC2)c2c(C)c(N3CCN(C(=O)OCC)CC3)c(F)cc2c1=O
191 to 194	NS(=O)(=O)c1ccc(-c2cnn(CC=C(F)F)c(=O)c2-c2ccc(F)cc2)cc1
174 to 176	C/C(=N\OCCCOc1ccc(C(=O)O)c(NC(=O)c2ccc(C(F)(F)F)cc2)c1)c1ccccc1
152	CCOC(=O)C1CCN(Cc2nc(NCc3ccc(OC)c(Cl)c3)c3c4c(oc3n2)CCCC4)CC1
157 to 158	COC(=O)c1ccc(COc2ccc(-c3cc(O)c(SCCc4ccccc4)c(=O)o3)cc2)cc1
118 to 119	O=C(O)C1Cc2ccc(OCc3ccccc3)cc2O1 (stereo not given)
168 to 169	CCOc1ccc(F)cc1NC(=O)Nc1ccc(N2CCN(C(=O)OC(C)(C)C)CC2)cc1
169 to 171	Cn1c(=O)c(-c2c(Cl)cccc2Cl)cc2cnc(Nc3ccc(CCCC(=O)O)cc3)nc21
111 to 114	CCc1cccc2nc(C(=O)OC)c(C(=O)OC)c(O)c12
173 to 178	CS(=O)(=O)c1ccc(-c2nc3cc(OC(=O)N4CCCCC4)ccc3s2)c(F)c1
226 to 228	Cc1ccc(N2N=CC(=NNc3cccc(-c4cccc(C(=O)O)c4)c3O)C2=O)cc1C
124 to 126	CCCCS(=O)(=O)NC(Cc1ccc(N2CCN(CCC3CCN(C(=O)OC(C)(C)C)CC3)C2=O)cc1)C(=O)OC (stereo not given)
128 to 129	Cc1nc(NC(=O)Nc2ccc(N3CCN(C(=O)Nc4cc(OCCO)ccc4Cl)CC3)nc2)sc1C
150	CNc1cc(Oc2ccc(Cl)cc2Cn2cncn2)ccc1[N+](=O)[O-]
95	CC(=O)OCn1cc(Cl)c(-c2cc(Cl)cc(Cl)c2)n1
140 to 141	CCOC(=O)c1sc(S(C)(=O)=O)c2c1CCc1cnn(C)c1-2
192 to 193	CCOC(=O)Cn1c(=O)c2cc(F)c(-c3ncc[nH]3)cc2n(Cc2ccc(Cl)cc2Cl)c1=O
148 to 150	O=C(c1cccs1)c1cccnc1N1CCCC1=O
209 to 211	COc1cccc(-c2cn3cc(C(=O)NCCCCCCC(=O)NO)sc3n2)c1
> 305	Cc1[nH]c(=O)c(C#N)cc1C(=O)c1ccncc1

melting point [°C]	SMILES
184 to 185	Cc1nccn1-c1ccc(Sc2cccc(C3(C(N)=O)CCOCC3)c2)cc1
142	CN(C)C(=S)Oc1ccc(C(F)(F)F)cc1C(=O)c1ccc(C#N)cc1
124 to 126	Cc1ccc(-c2c(NS(=O)(=O)c3ccc(C(C)(C)C)cc3)nc(NCCO)nc2OCCOCc2ccccc2)cc1
142	CN(C(=O)CSc1nccc(-c2ccccn2)n1)c1ccc(Cl)cc1
152	COc1cc(-c2nc3ccccc3n2Cc2ccccc2Br)cc(OC)c1OC
236 to 238	COc1ccc2c(=O)c(NC(=O)C(=O)O)coc2c1
146 to 147	CCCS(=O)(=O)c1c(C)nn(-c2c(Cl)cc(C(F)(F)F)cc2Cl)c1N
67 to 70	CCOc1ccc(C(=O)C2CC2)cc1
238	O=C(N[C@H]1CC[C@H](CCN2CCC(c3cccc4c3CCO4)CC2)CC1)c1ccc2ncccc2c1
168 to 169	COc1ccc2c(c1OC)C(=O)c1c-2c(N2CCNCC2)nc2ccc(Cl)cc12
176 to 178	CC(C)COc1ccc(Br)cc1N(Cc1ccc(N(C)C)cc1)C(=O)C1CCCc2ccccc21 (stereo not given)
> 260	N#Cc1c[nH]c2cc3ccccc3cc2c1=O
135 to 137	O=[N+]([O-])c1ccc2nc(CCCCCCCCc3nc4ccc([N+](=O)[O-])cc4[nH]3)[nH]c2c1
55 to 56	O=C(c1ccc(Cl)cc1Cl)C1(n2cncn2)CC1
141 to 143	COC(=O)C1=Cc2cc(OCc3ccc(F)cc3)ccc2S(=O)(=O)CC1
86 to 87	Cc1c(Sc2cccnc2)sc2ccc(Br)cc12
169 to 171	CN(C(=O)c1ccc2nonc2c1)C1CCOC(=O)C1 (stereo not given)
97 to 100	CC1(C)Cc2c(F)cccc2C(c2cnc3ccccc3c2)=N1
136 to 137	COC(=O)c1cc(-c2nc(COc3ccc(COc4nn(-c5ccccc5)cc4C=O)cc3OC)c(C)o2)ccc1OS(C)(=O)=O
95 to 97	O=C(NCC1CCN(CC2COc3ccccc3O2)CC1)c1ccccn1 (stereo not given)

melting point [°C]	SMILES
183	Cc1ccc2c(c1)c(N1CCN(C(=O)c3cccs3)CC1)c(C#N)c(=O)n2Cc1ccccc1
186 to 188	CC1(C)CN2C(=O)c3ccccc3C(O)(c3ccccc3)C2=N1 (stereo not given)
233	NC(=O)c1cc(COc2nnc(Nc3ccc(Cl)cc3)c3ccsc23)ccn1
240 to 242	Cc1cc2oc(=O)c(NC(N)=O)c(-c3ccccc3C)c2cc1Cl
142 to 143	O=C(O)C(=O)c1ccc(OC/C=C/c2ccc3ccccc3c2)cc1
146 to 147	NS(=O)(=O)Oc1ccc(I)cc1
59 to 60	COC(=O)c1cc(C2CO2)cc([N+](=O)[O-])c1 (stereo not given)
130 to 131	NC(=O)CNC(=O)c1cccc(-c2cccc3sc(Cc4cccc(C(F)(F)F)c4)nc23)c1
145 to 147	O=C1NC(=O)C(=Cc2ccc(OCCN3C(=O)SC(Cc4ccccc4)C3=O)cc2)S1 (stereo not given)
138 to 140	CCOC(=O)c1cnc2sc3c(c2c1O)CCCC3
50 to 70	CC(=O)OCC(=O)N(c1c(C)ccc2ccccc12)C1CCOC1=O (stereo not given)
231 to 232	O=C(Cn1c(-c2ccc(Cl)cc2)nc2cccnc21)NC1CC1
118 to 120	CC(=O)NC(C)(C)c1ccc(CN2CCN(c3nccs3)CC2)cc1
179 to 180	CC(=O)Oc1ccc(C=CC(=O)NC23CC4CC(CC(C4)C2)C3)cc1[N+](=O)[O-]
128 to 130	O=c1n(CC(O)(Cn2cncn2)c2ccc(F)cc2F)cnn1-c1ccc(OC(F)(F)F)cc1 (racemic)
215 to 217	CCC(=O)N(C(=O)CC)c1nc2c(c(-c3ccccc3)cn2C)c(=O)n1C
154 to 155	CN1CC[C@H](NC(=O)c2ccccc2)[C@H](c2ccccc2)C1 (relative stereo)
198 to 200	CC(C)(COc1nn2ccnc2c2c1CCCC2)CS(N)(=O)=O
